Assay results published in patent US20170312205A1, “USE OF ESTERS OF N-ACYLATED DERIVATIVES OF AMINO ACIDS AND POLYOLS AS AN ANTI-AGEING AGENT FOR HUMAN SKIN” (SOCIETE D'EXPLOITATION DE PRODUITS POUR LES INDUSTRIES …, priority 2014, published 2017).

Test system: normal human fibroblasts
Test: in vitro study of migration of human fibroblasts (Oris migration plates, Calcein AM labeling)
Assay type: cell-based
Details: for mean migration distance of the cells (Dmigr): 40 hours incubation at 37° C., mitomycin C pretreated, quadruplicate; for [(Dmigr) − (Dmigr)control]/(Dmigr)control (percentage of migratory effect relative to the control): 40 hours incubation, vs FCS culture control
Text: The fibroblast migration test is a test commonly used in the cosmetics and pharmaceutical sector and is especially described in the international patent application published under the number WO 2010/056908 A1. It allows in vitro reproduction of the phenomenon of fibroblast migration; a decrease in the migratory capacities of the fibroblasts being reported as associated with aging of the skin (1) (4).
Normal human fibroblasts at the R5 passage were amplified in a T75 culture flask and then inoculated at 25 000 cells/well in specific culture plates. These plates are dedicated to migration (Oris™ from Platypus), integrating a central zone without initial deposition of cells (stoppers). After 96 hours of plate amplification and 2 hours before the treatment, all the wells were treated with mitomycin C (2 hours at […]), so as to stop the cell proliferation, and thus to observe only the migration phenomenon. The stoppers were removed, and the references, the products or standard medium for fibroblasts containing 2% fetal calf serum (FCS) were applied to the cells under 100 μl, and then incubated for 40 hours at 37° C. under 5% CO2. Each condition was performed in quadruplicate.
On conclusion of the incubation, the cells were labeled with Calcein AM (5 μM, 20 minutes at 37° C.), so as to visualize the viable cells by fluorescence (revelation of the cytoplasm). Photos were taken, after having inserted a black screen under the culture plates, so as to visualize only the zone where the cells were not deposited. Thus, only the cells which had migrated were photographed (×4 objective lens; with a ×0.7 reducer on the camera adapter). The mean migration distance of the cells (Dmigr) was measured with NIS-Elements-BR 3.0 (4 cells). The means and standard deviations of the distances were calculated on the quadruplicates. The percentages of migratory effect relative to the control, and also the statistics (Student test) were also calculated.

“Epidermal Growth Factor [Epidermal Growth Factor (EGF)]” was tested, and the “mean migration distance of the cells (Dmigr)” value (EGF 10 ng/ml) was 203 ± 20 μm, the “[(Dmigr) − (Dmigr)control]/(Dmigr)control (percentage of migratory effect relative to the control)” value (EGF 10 ng/ml) was “+21%” and the “mean migration distance of the cells (Dmigr)” value (EGF 50 ng/ml) was 212 ± 8 μm. For the same substance, the “[(Dmigr) − (Dmigr)control]/(Dmigr)control (percentage of migratory effect relative to the control)” value (EGF 50 ng/ml) was “+26%” and the “migration distance of the fibroblasts (result in words)” value (EGF at 10 and 50 ng/ml with normal human fibroblasts, validates the model) was “increase in the migration distance”.
